The values that follow come from ChEMBL document CHEMBL1146803, “Structure activity studies of ring E analogues of methyllycaconitine. Part 2: Synthesis of antagonists to the alpha3beta4* nicotinic acetylcholine receptors through modifications to the ester” (Bioorg Med Chem Lett, 2004).

Usually IC50 stands for the point on the concentration scale where inhibition reaches its midpoint.

T1 sequence (P30926 whole entry): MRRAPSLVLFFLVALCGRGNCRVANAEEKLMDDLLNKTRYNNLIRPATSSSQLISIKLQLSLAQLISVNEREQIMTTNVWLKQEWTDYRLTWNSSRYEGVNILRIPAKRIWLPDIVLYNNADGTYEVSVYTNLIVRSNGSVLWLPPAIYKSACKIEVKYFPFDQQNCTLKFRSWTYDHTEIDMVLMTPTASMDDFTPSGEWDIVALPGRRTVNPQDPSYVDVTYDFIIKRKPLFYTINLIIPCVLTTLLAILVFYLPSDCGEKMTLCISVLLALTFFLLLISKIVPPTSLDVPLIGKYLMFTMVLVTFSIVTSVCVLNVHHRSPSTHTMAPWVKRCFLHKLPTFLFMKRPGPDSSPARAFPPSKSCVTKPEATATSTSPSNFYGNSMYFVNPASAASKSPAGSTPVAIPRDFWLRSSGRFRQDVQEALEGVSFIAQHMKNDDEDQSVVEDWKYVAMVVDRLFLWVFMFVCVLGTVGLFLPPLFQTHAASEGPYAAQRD
T1 sequence (P32297 whole entry): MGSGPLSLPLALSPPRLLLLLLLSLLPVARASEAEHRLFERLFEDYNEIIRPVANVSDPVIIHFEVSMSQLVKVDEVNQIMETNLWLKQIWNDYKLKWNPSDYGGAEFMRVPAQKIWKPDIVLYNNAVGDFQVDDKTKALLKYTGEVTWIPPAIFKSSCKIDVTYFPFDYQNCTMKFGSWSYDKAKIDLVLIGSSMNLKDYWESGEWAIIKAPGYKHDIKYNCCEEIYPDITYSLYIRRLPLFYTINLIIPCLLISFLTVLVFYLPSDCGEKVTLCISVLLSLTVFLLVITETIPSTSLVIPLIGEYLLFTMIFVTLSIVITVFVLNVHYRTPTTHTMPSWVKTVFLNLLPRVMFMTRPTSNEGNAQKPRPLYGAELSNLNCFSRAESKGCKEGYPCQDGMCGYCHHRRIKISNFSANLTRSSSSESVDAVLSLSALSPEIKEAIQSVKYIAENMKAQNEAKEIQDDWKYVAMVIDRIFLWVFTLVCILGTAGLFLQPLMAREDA
Neuronal acetylcholine receptor subunit alpha-7, sequence (P36544 whole entry): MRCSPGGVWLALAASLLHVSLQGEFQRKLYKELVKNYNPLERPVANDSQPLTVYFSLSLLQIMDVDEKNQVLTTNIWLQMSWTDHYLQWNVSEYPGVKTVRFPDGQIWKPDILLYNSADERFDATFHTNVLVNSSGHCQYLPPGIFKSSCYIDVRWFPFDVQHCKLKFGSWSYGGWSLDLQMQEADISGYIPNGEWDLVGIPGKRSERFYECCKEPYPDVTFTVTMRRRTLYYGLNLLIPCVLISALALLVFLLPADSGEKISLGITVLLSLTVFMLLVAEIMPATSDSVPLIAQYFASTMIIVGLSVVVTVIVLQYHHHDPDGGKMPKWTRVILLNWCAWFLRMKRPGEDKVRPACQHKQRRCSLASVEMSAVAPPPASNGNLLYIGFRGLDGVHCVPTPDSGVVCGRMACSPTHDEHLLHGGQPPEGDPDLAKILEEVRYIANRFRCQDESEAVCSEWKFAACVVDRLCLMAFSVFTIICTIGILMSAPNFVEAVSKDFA

The target of one assay is Neuronal acetylcholine receptor subunit alpha-3 (Homo sapiens, UniProt P32297). Kind of assay: Inhibitory activity on nicotinic acetylcholine receptor alpha3.
Neuronal acetylcholine receptor subunit alpha-3, sequence (P32297 whole entry): as the sequence (P32297 whole entry) above
In the case of `CC(C)N1CCCC(COC(=O)c2ccccc2N2C(=O)CCC2=O)C1` (centres undefined), the IC50 is ~20 µM. The same measure, in the same setting: the figure for `CC1CC(=O)N(c2ccccc2C(=O)OCC2CCCN(C(C)C)C2)C1=O` (centres undefined) is ~20 µM.

Another assay concerns the target Neuronal acetylcholine receptor subunit alpha-7 (Homo sapiens, UniProt P36544). Kind of assay: Affinity for nicotinic acetylcholine receptor alpha7.
For `CC1CC(=O)N(c2ccccc2C(=O)OCC2CCCN(CCc3ccccc3)C2)C1=O` (centres undefined), the half-inhibitory concentration (IC50) was found to be 177 µM.

Another assay concerns the target T1, Neuronal acetylcholine receptor; alpha3/beta4 (Homo sapiens, UniProt P30926+P32297). The assay is described as follows: Inhibitory activity against nicotinic acetylcholine receptor alpha3-beta4. It is filed as protein-complex assay.
With `COc1cc2c3cc1Oc1cc(ccc1O)C[C@@H]1c4c(cc(OC)c(O)c4Oc4ccc(cc4)C[C@@H]3N(C)CC2)CC[N+]1(C)C`, the IC50 amounted to 2 µM. Still for that read-out and setting: with `C[N+](C)(C)CCCCCCCCCC[N+](C)(C)C` [DECAMETHONIUM] the figure was ~1.7 µM; with `C[N+](C)(C)CCCCCC[N+](C)(C)C` [HEXAMETHONIUM HYDROXIDE], ~1.7 µM.

The target in the next assay is T1, Neuronal acetylcholine receptor; alpha3/beta4. The assay is described as follows: Effect on alpha3-beta4 neuronal nicotinic acetylcholine receptor-stimulated adrenal catecholamine secretion. The assay is classed as functional.
`O=C(OCC1CCCN(CCCc2ccccc2)C1)c1ccccc1N1C(=O)CC(Cc2ccccc2)C1=O` (centres undefined) registered an IC50 of 1.3 µM.

Consider `C=CCC1CC(=O)N(c2ccccc2C(=O)OCC2CCCN(CCCc3ccccc3)C2)C1=O` (centres undefined), for which the IC50 was 1.7 µM. This IC50 and that of the molecule before are within 1.5-fold of each other.

Molecule `CCN1C[C@]2(COC(=O)c3ccccc3N3C(=O)C[C@H](C)C3=O)CC[C@H](OC)[C@@]34[C@@H]5C[C@H]6[C@H](OC)[C@@H]5[C@](O)(C[C@@H]6OC)[C@](O)([C@@H](OC)[C@H]23)[C@@H]14` [METHYLLYCACONITINE] showed an IC50 of 2.6 µM. On the same count and under the same terms, the figure for `CCCCC1CC(=O)N(c2ccccc2C(=O)OCC2CCCN(CCCc3ccccc3)C2)C1=O` (centres undefined) is 1.5 µM. Regarding `CCC1CC(=O)N(c2ccccc2C(=O)OCC2CCCN(CCCc3ccccc3)C2)C1=O` (centres undefined), the concentration for half-maximal inhibition (IC50) is 4.5 µM. The same measure, in the same setting: the figure for `O=C(OCC1CCCN(CCCc2ccccc2)C1)c1ccccc1N1C(=O)CC(C2CCCC2)C1=O` (centres undefined) is 1.2 µM; for `O=C(OCC1CCCN(CCCc2ccccc2)C1)c1ccccc1F` (centres undefined) it is 5.2 µM. Turning to `CC1C(=O)N(c2ccccc2C(=O)OCC2CCCN(CCCc3ccccc3)C2)C(=O)C1C` (centres undefined), it took 6 µM to reach half-maximal inhibition (IC50). This IC50 and that of the molecule before are within 1.5-fold of each other. In turn, `O=C(OCC1CCCN(CCCc2ccccc2)C1)c1ccccc1N1C(=O)c2ccccc2C1=O` (centres undefined) yielded an IC50 of 1.3 µM. Same read-out and setting: the figure for `CCCCCCCCC1CC(=O)N(c2ccccc2C(=O)OCC2CCCN(CCCc3ccccc3)C2)C1=O` (centres undefined) is 1.3 µM. On the same count and under the same terms, with `O=C(OCC1CCCN(CCCc2ccccc2)C1)c1ccccc1C(F)(F)F` (centres undefined) the figure was 3.2 µM. As to `COc1ccccc1C(=O)OCC1CCCN(CCCc2ccccc2)C1` (centres undefined), the IC50 is 3.2 µM. Same read-out and setting: the figure for `CC(C)C1CC(=O)N(c2ccccc2C(=O)OCC2CCCN(CCCc3ccccc3)C2)C1=O` (centres undefined) is 2.5 µM. Same read-out and setting: with `O=C(OCC1CCCN(CCCc2ccccc2)C1)c1ccccc1-c1ccccc1` (centres undefined) the figure was 1.7 µM; with `CC(=O)Nc1ccccc1C(=O)OCC1CCCN(CCCc2ccccc2)C1` (centres undefined), 8.4 µM. As to `O=C(OCC1CCCN(CCCc2ccccc2)C1)c1ccc(-c2ccccc2)cc1` (centres undefined), the IC50 came to 3 µM. This IC50 lies about 2.8-fold lower than the previous one.

Take `CC1(C)CC(=O)N(c2ccccc2C(=O)OCC2CCCN(CCCc3ccccc3)C2)C1=O` (centres undefined): the half-maximal inhibitory concentration (IC50) came to 7.5 µM.

For the molecule `CC1CC(=O)N(c2ccccc2C(=O)OCC2CCCN(CCc3ccccc3)C2)C1=O` (centres undefined), the IC50 is 11.4 µM. Against the preceding molecule, the IC50 is about 1.5-fold higher.
